Test results published in the supplement of paper PMC11451515.

System: SEM cells
Assay: cell viability relative to DMSO control; higher = less cytotoxic
Conditions: 48 h
Summary of the method: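 Library compounds in DMSO were pin-dosed into 1536-well plates (5 μl) holding NOMO1 or SEM (500 cells/well) or P12-Ichikawa (1000 cells/well) leukemia cells, across an 11-point threefold series of 47 μM to 0.79 nM. Each cell line had been adapted for at least four passages in each medium. CellTiter-Glo One luminescence was read after 48 h at 37°C. Viability is the per-plate percentage relative to DMSO wells, with cell-free wells as background.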

[1] = HPLM + 10% dialyzed FBS, 0.000781 µM
[2] = HPLM + 10% dialyzed FBS, 0.00234 µM
[3] = HPLM + 10% dialyzed FBS, 0.00702 µM
[4] = HPLM + 10% dialyzed FBS, 0.0211 µM
[5] = HPLM + 10% dialyzed FBS, 0.0632 µM
[6] = HPLM + 10% dialyzed FBS, 0.19 µM
[7] = HPLM + 10% dialyzed FBS, 0.569 µM
[8] = HPLM + 10% dialyzed FBS, 1.71 µM
[9] = HPLM + 10% dialyzed FBS, 5.12 µM
[10] = HPLM + 10% dialyzed FBS, 15.4 µM
[11] = HPLM + 10% dialyzed FBS, 46.1 µM
[12] = RPMI 5 mM glucose + 10% FBS, 0.000781 µM
[13] = RPMI 5 mM glucose + 10% FBS, 0.00234 µM
[14] = RPMI 5 mM glucose + 10% FBS, 0.00702 µM
[15] = RPMI 5 mM glucose + 10% FBS, 0.0211 µM
[16] = RPMI 5 mM glucose + 10% FBS, 0.0632 µM
[17] = RPMI 5 mM glucose + 10% FBS, 0.19 µM
[18] = RPMI 5 mM glucose + 10% FBS, 0.569 µM
[19] = RPMI 5 mM glucose + 10% FBS, 1.71 µM
[20] = RPMI 5 mM glucose + 10% FBS, 5.12 µM
[21] = RPMI 5 mM glucose + 10% FBS, 15.4 µM
[22] = RPMI 5 mM glucose + 10% FBS, 46.1 µM
[23] = RPMI 5 mM glucose + 10% dialyzed FBS, 0.000781 µM
[24] = RPMI 5 mM glucose + 10% dialyzed FBS, 0.00234 µM
[25] = RPMI 5 mM glucose + 10% dialyzed FBS, 0.00702 µM
[26] = RPMI 5 mM glucose + 10% dialyzed FBS, 0.0211 µM
[27] = RPMI 5 mM glucose + 10% dialyzed FBS, 0.0632 µM
[28] = RPMI 5 mM glucose + 10% dialyzed FBS, 0.19 µM
[29] = RPMI 5 mM glucose + 10% dialyzed FBS, 0.569 µM
[30] = RPMI 5 mM glucose + 10% dialyzed FBS, 1.71 µM
[31] = RPMI 5 mM glucose + 10% dialyzed FBS, 5.12 µM
[32] = RPMI 5 mM glucose + 10% dialyzed FBS, 15.4 µM
[33] = RPMI 5 mM glucose + 10% dialyzed FBS, 46.1 µM

Compound	cell viability [1] [%]	cell viability [2] [%]	cell viability [3] [%]	cell viability [4] [%]	cell viability [5] [%]	cell viability [6] [%]	cell viability [7] [%]	cell viability [8] [%]	cell viability [9] [%]	cell viability [10] [%]	cell viability [11] [%]	cell viability [12] [%]	cell viability [13] [%]	cell viability [14] [%]	cell viability [15] [%]	cell viability [16] [%]	cell viability [17] [%]	cell viability [18] [%]	cell viability [19] [%]	cell viability [20] [%]	cell viability [21] [%]	cell viability [22] [%]	cell viability [23] [%]	cell viability [24] [%]	cell viability [25] [%]	cell viability [26] [%]	cell viability [27] [%]	cell viability [28] [%]	cell viability [29] [%]	cell viability [30] [%]	cell viability [31] [%]	cell viability [32] [%]	cell viability [33] [%]
CCCCCCCCCC(=O)N[C@@H](Cc1c[nH]c2ccccc12)C(=O)N[C@H](CC(N)=O)C(=O)N[C@@H](CC(=O)O)C(=O)N[C@@H]1C(=O)NCC(=O)N[C@@H](CCCN)C(=O)N[C@@H](CC(=O)O)C(=O)N[C@H](C)C(=O)N[C@@H](CC(=O)O)C(=O)NCC(=O)N[C@H](CO)C(=O)N[C@@H]([C@@H](C)CC(=O)O)C(=O)N[C@@H](CC(=O)c2ccccc2N)C(=O)O[C@@H]1C	81.6	101	98.3	108	93.4	108	121	114	116	107	101	103	103	123	114	105	120	121	102	116	119	120	102	105	94.8	103	123	104	117	103	109	105	102
CCCCC(C=O)NC(=O)C(CC(C)C)NC(=O)OCc1ccccc1 (stereo unspecified)	93.8	99.8	90.6	105	98.5	58	99.1	102	92.1	81.1	57	110	87.2	94.2	102	110	88.7	91.8	90.9	84.3	85.1	52.6	93.8	82.8	78.1	89.1	86.2	66.2	96.7	94.5	84.8	71.1	47.9
CC[C@]12\C=C/CN3CC[C@]4([C@@H](N(C)C5=CC(=C(C=C45)[C@]6(C[C@H]7C[C@H](CN(C7)CC8=C6[NH]C9=C8C=CC=C9)C(C)(F)F)C(=O)OC)OC)[C@](O)([C@@H]1OC(C)=O)C(=O)OC)[C@H]23	107	97.9	94.9	74.6	29.3	21.1	22	22	25	17.8	6.8	120	120	87.4	76.9	18.7	18.8	17.3	20.2	15.6	11.3	6.89	95.3	83	74.5	68.9	43.2	21.2	16.9	18.9	21	15.3	5.17
NC(=O)c1cccc2cn(-c3ccc([C@@H]4CCCNC4)cc3)nc12	86.9	90.8	105	126	129	98.9	112	116	91.8	63.8	50	97.8	111	113	110	102	92.8	119	113	120	80.1	32.5	94.3	80.8	93.4	106	104	90	109	124	94.6	66.4	44.4
CO/C1=C/C(C)=C\[C@@H](C)[C@@H](O)[C@@H](C)C/C(C)=C\C=C/[C@H](OC)[C@@H]([C@@H](C)[C@@H](O)[C@H](C)[C@@]2(O)C[C@@H](O)[C@H](C)[C@@H](C(C)C)O2)OC1=O	91	74.8	91	48.6	28.7	27	27	25.2	32	29	29.7	80.9	75	88.1	46.8	29.2	26.2	24.6	29.9	31.8	32.8	31.8	81.3	79.9	87.8	38.1	27.3	27.8	29.6	30.1	26.2	29.7	30.3
CC(C)c1ccc(Cn2ccc3c4c(N)nc(NC5CC5)nc4ccc32)cc1	99.5	100	113	100	113	107	67.6	53.2	37.5	31.9	6.32	107	114	120	80.5	106	120	102	110	35.5	19.5	8.49	97.7	113	123	80.5	125	124	134	119	46.7	33.3	9.93
CN1\C(=C(\O)C2=C(C=CC=C2)[S+]1([O-])=O)C(=O)NC3=CC=CC=N3	92.2	81.9	96.9	75	91.9	114	7.98	67.2	112	63.3	64.9	90	95	97.8	107	106	117	6.64	54.8	93.2	54.9	56.6	98.4	86.6	112	107	123	109	8.39	51.8	96.6	59.8	74.5
